Source: patent US20260364168A1, “USE OF PROTEIN KINASE C (PKC) ACTIVATING COMPOUNDS AS AN ADJUVANT” (priority 2022, published 2026)
Where two headings read alike, the source gives them in different places.

System: human PBMC cells
Test: cytokine/chemokine gene expression (TaqMan) in human PBMC
Details: Homo sapiens, PBMC, 4 h
Procedure: Materials and methods: 100 million frozen human PBMC cells were purchased from Allcells (100 million/vial). The cells were thawed and recovered for one day before 1.5-1.8 million cells in 900 μl RPMI1640 with 10% heat-inactivated FBS were seeded in each well of 24-well plates. Various compounds in DMSO stock (500×) were diluted 50-fold with the same media to make 10× compound stock for most compounds. 1 μL of 5 mg/mL PMA was diluted to 99 μL of the media to make 50 μg/mL PMA. For PMA with ionomycin treatment condition, 1.5 μL of 50 μg/mL PMA and 3 μL of 500 μg/mL ionomycin were added to 145.5 μL of the media to make 10× compound stock. Sources of the compounds are as follows: PMA from Abcam (Abcam #ab120297); Ionomycin from Sigma (Sigma #I0634); Resiquimod from Sellect Chem. (Selleckchem #S8133); and LPS from Sigma (Sigma #L6143).
Each treatment condition was performed in duplicates. After treatment, mRNA was extracted from cells and samples from duplicates were combined for TaqMan gene expression assays (ThermoFisher) in triplicates. Expression of 19 genes (IL-1β, IL-2, IL-4, IL-6, IL-8, IL-10, IL-13, IL-18, IL-12p70/IL-12A, IL-12p40/IL-12B, IFN-α, IFN-γ, GM-CSF/CSF2, CCL2/MCP-1, MIP1a/CCL3, TNF-α, MX1, OAS1, ISG15) along with two housekeeping gene controls, 18S and GAPDH, was determined. Target gene expression in each sample was determined by relative quantification (RQ) using the comparative Ct (ΔΔCT) method. This method measures the Ct difference (ΔCT) between target gene and the housekeeping genes (18S & GAPDH), then compares the ΔCT values of treated samples to DMSO-treated control samples. The mean ΔCT value of the DMSO-treated control from two independent DMSO-treated control samples was used. The relative expression level of target gene was calculated by using the equation:
relative expression=2^−ΔΔCT

## CC1=C[C@H]2[C@@]3(O)[C@H](C)C[C@]4(OC(=O)[C@@H](N)[C@]56C[C@H]7C[C@H](C[C@H](C7)C5)C6)[C@H]([C@@H]3C=C(CO)C[C@]2(O)C1=O)C4(C)C
read-out: CCL2 gene relative expression, 0.01 μM, 4 h, vs DMSO
  fold induction at 0.01 µM: 5.58
read-out: CCL2 gene relative expression, 0.03 μM, 4 h, vs DMSO
  fold induction at 0.03 µM: 3.59
read-out: CCL2 gene relative expression, 0.10 μM, 4 h, vs DMSO
  fold induction at 0.1 µM: 0.38
read-out: GM-CSF gene relative expression, 0.01 μM, 4 h, vs DMSO
  fold induction at 0.01 µM: 1.59
read-out: GM-CSF gene relative expression, 0.03 μM, 4 h, vs DMSO
  fold induction at 0.03 µM: 8.38
read-out: GM-CSF gene relative expression, 0.10 μM, 4 h, vs DMSO
  fold induction at 0.1 µM: 16.1
read-out: IFN-α gene relative expression, 0.01 μM, 4 h, vs DMSO
  fold induction at 0.01 µM: 0.78
read-out: IFN-α gene relative expression, 0.03 μM, 4 h, vs DMSO
  fold induction at 0.03 µM: 0.46
read-out: IFN-α gene relative expression, 0.10 μM, 4 h, vs DMSO
  fold induction at 0.1 µM: 0.31
read-out: IFNγ gene relative expression, 0.01 μM, 4 h, vs DMSO
  fold induction at 0.01 µM: 1.69
read-out: IFNγ gene relative expression, 0.03 μM, 4 h, vs DMSO
  fold induction at 0.03 µM: 3.82
read-out: IFNγ gene relative expression, 0.10 μM, 4 h, vs DMSO
  fold induction at 0.1 µM: 18.1
read-out: IL-1β gene relative expression, 0.01 μM, 4 h, vs DMSO
  fold induction at 0.01 µM: 0.59
read-out: IL-1β gene relative expression, 0.03 μM, 4 h, vs DMSO
  fold induction at 0.03 µM: 2.26
read-out: IL-1β gene relative expression, 0.10 μM, 4 h, vs DMSO
  fold induction at 0.1 µM: 3
read-out: IL-2 gene relative expression, 0.01 μM, 4 h, vs DMSO
  fold induction at 0.01 µM: 3.06
read-out: IL-2 gene relative expression, 0.03 μM, 4 h, vs DMSO
  fold induction at 0.03 µM: 7.78
read-out: IL-2 gene relative expression, 0.10 μM, 4 h, vs DMSO
  fold induction at 0.1 µM: 3.29
read-out: IL-4 gene relative expression, 0.01 μM, 4 h, vs DMSO
  fold induction at 0.01 µM: 0.84
read-out: IL-4 gene relative expression, 0.03 μM, 4 h, vs DMSO
  fold induction at 0.03 µM: 2.54
read-out: IL-4 gene relative expression, 0.10 μM, 4 h, vs DMSO
  fold induction at 0.1 µM: 2.77
read-out: IL-6 gene relative expression, 0.01 μM, 4 h, vs DMSO
  fold induction at 0.01 µM: 1.17
read-out: IL-6 gene relative expression, 0.03 μM, 4 h, vs DMSO
  fold induction at 0.03 µM: 0.86
read-out: IL-6 gene relative expression, 0.10 μM, 4 h, vs DMSO
  fold induction at 0.1 µM: 6.72
read-out: IL-8 gene relative expression, 0.01 μM, 4 h, vs DMSO
  fold induction at 0.01 µM: 0.71
read-out: IL-8 gene relative expression, 0.03 μM, 4 h, vs DMSO
  fold induction at 0.03 µM: 0.54
read-out: IL-8 gene relative expression, 0.10 μM, 4 h, vs DMSO
  fold induction at 0.1 µM: 0.6
read-out: IL-10 gene relative expression, 0.01 μM, 4 h, vs DMSO
  fold induction at 0.01 µM: 1.12
read-out: IL-10 gene relative expression, 0.03 μM, 4 h, vs DMSO
  fold induction at 0.03 µM: 0.41
read-out: IL-10 gene relative expression, 0.10 μM, 4 h, vs DMSO
  fold induction at 0.1 µM: 0.09
read-out: IL-12p40 gene relative expression, 0.01 μM, 4 h, vs DMSO
  fold induction at 0.01 µM: 0.89
read-out: IL-12p40 gene relative expression, 0.03 μM, 4 h, vs DMSO
  fold induction at 0.03 µM: 0.32
read-out: IL-12p40 gene relative expression, 0.10 μM, 4 h, vs DMSO
  fold induction at 0.1 µM: 0.22
read-out: IL-12p70 gene relative expression, 0.01 μM, 4 h, vs DMSO
  fold induction at 0.01 µM: 1.03
read-out: IL-12p70 gene relative expression, 0.03 μM, 4 h, vs DMSO
  fold induction at 0.03 µM: 0.87
read-out: IL-12p70 gene relative expression, 0.10 μM, 4 h, vs DMSO
  fold induction at 0.1 µM: 0.76
read-out: IL-13 gene relative expression, 0.01 μM, 4 h, vs DMSO
  fold induction at 0.01 µM: 3.1
read-out: IL-13 gene relative expression, 0.03 μM, 4 h, vs DMSO
  fold induction at 0.03 µM: 52.6
read-out: IL-13 gene relative expression, 0.10 μM, 4 h, vs DMSO
  fold induction at 0.1 µM: 101
read-out: IL-18 gene relative expression, 0.01 μM, 4 h, vs DMSO
  fold induction at 0.01 µM: 0.26
read-out: IL-18 gene relative expression, 0.03 μM, 4 h, vs DMSO
  fold induction at 0.03 µM: 0.06
read-out: IL-18 gene relative expression, 0.10 μM, 4 h, vs DMSO
  fold induction at 0.1 µM: 0.06
read-out: ISG15 gene relative expression, 0.01 μM, 4 h, vs DMSO
  fold induction at 0.01 µM: 1.01
read-out: ISG15 gene relative expression, 0.03 μM, 4 h, vs DMSO
  fold induction at 0.03 µM: 1.33
read-out: ISG15 gene relative expression, 0.10 μM, 4 h, vs DMSO
  fold induction at 0.1 µM: 1.54
read-out: MIP1a (CCL3) gene relative expression, 0.01 μM, 4 h, vs DMSO
  fold induction at 0.01 µM: 1.65
read-out: MIP1a (CCL3) gene relative expression, 0.03 μM, 4 h, vs DMSO
  fold induction at 0.03 µM: 2.82
read-out: MIP1a (CCL3) gene relative expression, 0.10 μM, 4 h, vs DMSO
  fold induction at 0.1 µM: 5.73
read-out: MX1 gene relative expression, 0.01 μM, 4 h, vs DMSO
  fold induction at 0.01 µM: 0.84
read-out: MX1 gene relative expression, 0.03 μM, 4 h, vs DMSO
  fold induction at 0.03 µM: 1.01
read-out: MX1 gene relative expression, 0.10 μM, 4 h, vs DMSO
  fold induction at 0.1 µM: 0.99
read-out: OAS1 gene relative expression, 0.01 μM, 4 h, vs DMSO
  fold induction at 0.01 µM: 0.74
read-out: OAS1 gene relative expression, 0.03 μM, 4 h, vs DMSO
  fold induction at 0.03 µM: 0.78
read-out: OAS1 gene relative expression, 0.10 μM, 4 h, vs DMSO
  fold induction at 0.1 µM: 0.69
read-out: TNF-α gene relative expression, 0.01 μM, 4 h, vs DMSO
  fold induction at 0.01 µM: 2.39
read-out: TNF-α gene relative expression, 0.03 μM, 4 h, vs DMSO
  fold induction at 0.03 µM: 4.48
read-out: TNF-α gene relative expression, 0.10 μM, 4 h, vs DMSO
  fold induction at 0.1 µM: 6.25
